From patent US10765748B2, “Composition and methods for tethering bioactive peptides to metal oxide surfaces” (University of Akron, priority 2014, dated 2020)
“Also recorded” adds a separate entry of the source. Peptide text beside a SMILES is read from it. * marks the point of attachment. X1 = O=C(CCc1ccc(O)c(O)c1)NCCCC[C@H](NC(=O)CCc1ccc(O)c(O)c1)C(=O)*; FITC = O=C1OC2(c3ccc(O)cc3Oc3cc(O)ccc32)c2ccc(NC(=S)*)cc21; Dihydrocaffeoyl = O=C(CCc1ccc(O)c(O)c1)*

Legend:
[1] = Live/Dead viability assay; type: cell-based; conditions: mouse; immobilized on TiO2 substrates, cultured 24 hours
Description: The toxicity of the dendron of the embodiments of the present invention was tested using mouse calvarial pre-osteoblast cells ([…]) cells. The MC3T3-E1 cells were seeded on the TiO2 substrates with immobilized FITC-labeled OGP-Cat and cultured for 24 hours. […] The cells were well spread on the peptide-bearing surfaces, which is a consistent with an adherent proliferating cell population. See also, Example 17.
MC3T3-E1 mouse preosteoblast (passage 17) were expanded and cultured in α-MEM media (Gibco, Life Technologies, Grand Island, N.Y.) supplemented with 10% fetal bovine serum (FBS) (Invitrogen), 100 units/mL penicillin (Invitrogen), and 100 μg/mL streptomycin (Invitrogen) at 37° C. in a 5% CO2 humidified atmosphere. The cells were subcultured every 3 days in the presence of 0.25% (w/v) trypsin and 0.5% (w/v) ethylenediaminetetraacetic acid tetrasodium salt (EDTA) solution. […]
Viability of the cell culture of Example 16 above was evaluated using a Live/Dead viability/cytotoxicity kit (Invitrogen, UK). […] The staining solution was removed and the samples were viewed under the IX81 fluorescence microscope (Olympus) with 494 nm (green, Calcein) and 528 nm (red, EthD-1) emission filters. For quantitative analysis a total of 250 cells were counted from each sample over 25 randomly chosen areas and the viable and non-viable cells counts were recorded.

[2] = Fluorescence intensity of FITC-labeled OGP-Cat immobilized on TiO2; type: physicochemical; conditions: 3 days in 25 mM HEPES buffer pH 7.4
Description: Fluorescein-labeled modular peptide (FITC-labeled OGP-Cat) was also synthesized to visualize the presence of the immobilized peptides on TiO2 surface using fluorescence microscopy. (See, Example 13). After immobilization of FITC-labeled OGP-Cat onto TiO2 surfaces, the fluorescence intensity was much stronger compared to the control sample, which incubating TiO2-coated substrates in a solution of FITC at identical concentration. […] See, FIGS. 10A-B.
To study the stability of sequestered modular peptides on targeting surfaces, the modular peptide immobilized TiO2 substrates were immersed in 25 mM HEPES buffer (pH=7.4 at 25° C.) and incubated for different durations. The mean intensity of FITC-labeled OGP-Cat immobilized TiO2 substrates after incubation was quantified to detect the diffusion of FITC-labeled OGP-Cat into surrounding solution. (See FIG. 11). […] It is believed that the mismatch of retention time for the monovalent ligands may be attributed to the sensitivity difference of XPS and fluorescence microscopy. […]
The florescence intensity of FITC-OGP-(Cat)n (n=1, 2, and 4) on TiO2, Fe2O3, Fe3O4, ZrO2, CeO2, SiO2, and Au substrates was viewed with an inverted IX81 Microscope (Olympus, Center Valley, Pa.) with mercury bulb excitation and the appropriate filters. […] The mean intensity was calculated based on at least 10 randomly chosen sites observed under the same conditions.

[3] = QCM-d adsorption of catechol-functionalized dendrons to TiO2 surface; type: binding; conditions: for concentration to obtain ~6 Hz frequency shift: TiO2, 25° C., pH 7.4; for apparent disassociation constant Kd: 25° C., pH 7.4, single-site specific binding model; for maximum adsorption (Bmax): single-site specific binding model
Description: The adsorption processes of all molecules to TiO2 surfaces at 25° C. and pH 7.4 were monitored by quartz crystal microbalance with dissipation (QCM-d). (See Example 7). Multivalent binding effects that enhanced the binding affinity were clear. In FIG. 2, to obtain a similar level of adsorption, ˜6 Hz frequency shift, the concentration of monovalent ligand, OGP-Cat, was 13 μM, while that of tetravalent ligand, OGP-(Cat)4 and OGP-PEG-(Cat)4, was 0.32 and 0.16 μM, respectively due to the mass differences. A much smaller amount of sample (˜80-fold less) was needed for the tetravalent ligand OGP-PEG-(Cat)4 compared with the monovalent ligand OGP-Cat to achieve the same level (mass) of surface adsorption. […] Under similar conditions, the monovalent ligand was partially washed away. The adsorption kinetics were recorded by QCM-d, with regard to OGP-PEG-(Cat)4, and 2 hours were needed to reach the equilibrium state at a concentration of 0.16 μM.
To quantitatively compare the binding affinities of the multivalent binding ligands, their adsorption properties at several different concentrations were measured. The solutions at higher concentrations were switched to flow above the sensor, until the adsorption of previous solution at lower concentration reached the equilibrium state (the change in frequency shift is smaller than the signal fluctuation, 0.05 Hz/min), taking OGP-Cat as an example shown in FIG. 3A. In these experiments, the adsorption of OGP-Cat onto TiO2 surface at different concentrations was measured by QCM-d, while the concentration was increased sequentially (c1=0.068 μmol/L, c2=0.34 μmol/L, c3=1.8 μmol/L, c4=7.3 μmol/L, c5=13 μmol/L, and c6=34 μmol/L). At last the adsorbed layer was washed with 25 mM HEPES buffer. The flow rate was 0.150 mL/min. Three independent measurements (Sensors 1-3) are shown on FIG. 3A. The corresponding frequency shift was calculated using Sauerbrey Equation to get the adsorbed area mass. The adsorption isotherm of each molecule was drawn and fit with a single-site specific binding model to get the apparent disassociation constant (Kd) and maximum adsorption (Bmax) of OGP-Cat as in FIG. 3B and others in FIGS. 4A-F from the adsorbed area mass at the respective concentrations.
(§1) Quartz crystal microbalance with dissipation (QCM-d) was used to determine the binding isotherm for OGP-(Cat)4 on TiO2, Fe2O3, Fe3O4, ZrO2, CeO2, SiO2, and Au substrates. The AT cut sensors were purchased from Biolin Scientific AB (Sweden) and cleaned before use according to the protocol provided by the company. The sensor was excited at 5 MHz as its fundamental frequency. The frequency shift (Δf) and dissipation (ΔD) were measured at 3rd, 5th, 7th, 9th, 11th and 13th overtones. 25 mM HEPES buffer (pH=7.40 at 25° C.) was used as the flow medium. Sensors were mounted in the modules immediately after cleaning. […] Then solutions of catechol-bearing peptide (OGP-(Cat)4) in HEPES buffer were introduced and the flow continued until the adsorption reached its equilibrium state. If necessary, solutions at higher concentrations were introduced sequentially. Lastly, HEPES buffer was introduced again to wash the adsorbed layer. Three independent measurements were done simultaneously. The results are reported on FIG. 5.
The QCM-d measurements in Example 7 above may be used to calculate the adsorbed area mass. The adsorbed area mass was proportional to the frequency shift (Δf) and calculated by the Sauerbrey Equation. Sauerbrey Equation is
[formula] where C is the mass sensitivity constant with the value of 17.7 ng Hz^−1 cm^−2 for 5 MHz fundamental frequency crystal, n is the frequency overtone number, and n=7 was chosen to calculate the adsorption area mass. As long as the adsorbed mass is small compared to the crystal, sufficiently thin, and has limited viscoelastic coupling with the surrounding medium (ΔD<1×10^−6 per 10 Hz), this relationship is valid. […]

[4] = XPS of immobilized modular peptides on TiO2 substrates and retention in HEPES buffer; type: physicochemical; conditions: HEPES buffer pH 7.4
Description: Immobilization of peptides onto TiO2 surface was accomplished by immersing the TiO2 substrates into the corresponding modular peptide solution and incubating it overnight at ambient temperature. The successful immobilization of OGP-Cat and OGP-(Cat)4 onto TiO2-coated substrates were confirmed by XPS. Nitrogen is the element contained only in the modular peptides while not in bare TiO2, as shown in the XPS survey scan of bare TiO2 and OGP-(Cat)4 in FIG. 9A. […] It is noted that the N1s peaks in FIG. 9B are normalized to the highest intensity (O1s) for comparison of the signal to noise ratio.
To quantify the increase in nitrogen due to adsorption of OGP-Cat and OGP-(Cat)4, the nitrogen content (N1s) was normalized with Ti content (Ti2p), and compared with TiO2 substrate after incubation in HEPES buffer overnight (TiO2 as control), as show in Table 2, below.
To study the stability of sequestered modular peptides on targeting surfaces, the modular peptide immobilized TiO2 substrates were immersed in 25 mM HEPES buffer (pH=7.4 at 25° C.) and incubated for different durations. The mean intensity of FITC-labeled OGP-Cat immobilized TiO2 substrates after incubation was quantified to detect the diffusion of FITC-labeled OGP-Cat into surrounding solution. (See FIG. 11). […]

[5] = QCM-d adsorption of OGP-(Cat)4 to Al2O3; type: binding; conditions: c=10 μM
Description: (§2) The adsorption of tetravalent binding ligand OGP-(Cat)4 to a wide range of materials was tested to identify common features of materials to which the catechol-bearing ligands of various embodiments of the present invention strongly bind. […] While not wanting to be bound by theory, it is believed that this is because the coordination bond between catechol and metals with empty d-orbitals or f-orbitals provides a stronger interaction than Hydrogen bonding. […] Therefore, it is believed that OGP-(Cat)4 will be highly useful for the functionalization of transition metal oxides.

[6] = QCM-d adsorption of OGP-(Cat)4 to hydroxyapatite; type: binding; conditions: c=10 μM
Description: as §2

[7] = QCM-d adsorption of OGP-(Cat)4 to ZrO2; type: binding; conditions: c=1 μM
Description: as §2
as §1, with “If necessary, solutions at higher concentrations were introduced sequentially. Lastly, HEPES buffer was introduced again to wash the adsorbed layer. Three independent measurements were done simultaneously. The results are reported on FIG. 5.” left out

[8] = QCM-d adsorption of OGP-(Cat)4 to SiO2; type: binding
Description: as §2
as §1, with “If necessary, solutions at higher concentrations were introduced sequentially. Lastly, HEPES buffer was introduced again to wash the adsorbed layer. Three independent measurements were done simultaneously. The results are reported on FIG. 5.” left out

[9] = QCM-d adsorption of OGP-(Cat)4 to CeO2; type: binding; conditions: c=1 μM
Description: as §2
as §1, with “If necessary, solutions at higher concentrations were introduced sequentially. Lastly, HEPES buffer was introduced again to wash the adsorbed layer. Three independent measurements were done simultaneously. The results are reported on FIG. 5.” left out

[10] = QCM-d adsorption of OGP-(Cat)4 to gold; type: binding
Description: as §2
as §1, with “If necessary, solutions at higher concentrations were introduced sequentially. Lastly, HEPES buffer was introduced again to wash the adsorbed layer. Three independent measurements were done simultaneously. The results are reported on FIG. 5.” left out

[11] = QCM-d adsorption of OGP-(Cat)4 to iron oxide; type: binding; conditions: c=1 μM
Description: as §2
as §1, with “If necessary, solutions at higher concentrations were introduced sequentially. Lastly, HEPES buffer was introduced again to wash the adsorbed layer. Three independent measurements were done simultaneously. The results are reported on FIG. 5.” left out

apparent disassociation constant Kd ([3]; TiO2 surface) [nM] | incubation time after which decrease of N1s signal was detected [4] [h] | Kd ([3]; TiO2 surface) [nM] | binding to TiO2 ([3]; c=1 μM) | coverage of binding sites / maximum adsorption on TiO2 ([3]; solution at 100×Kd (2.8 μM) or Kd (28 nmol/L)) [%] | binding to ZrO2 [7] | binding to CeO2 [9] | binding to iron oxide [11] | Compound | viability at 24 h [1] [%] | mean fluorescence intensity after incubation [2] | concentration to obtain ~6 Hz frequency shift [3] [µM] | maximum adsorption (Bmax) ([3]; TiO2 surface) [ng/cm^2] | adsorption to Al2O3 [5] | adsorption to hydroxyapatite (HA) [6] | enhancement parameter β = Ka,multi/Ka,mono ([3]; multivalent vs monovalent ligand within set with or without PEG linkage) | adsorption to SiO2 ([8]; c=1 μM) | adsorption to SiO2 ([8]; c=10 μM) | adsorption to gold ([10]; c=1 μM) | adsorption to Au ([10]; c=10 μM)
– | – | – | – | – | – | – | – | O=C(O)CNC(=O)CNC(=O)[C@H](Cc1ccccc1)NC(=O)CNC(=O)[C@H](Cc1ccc(O)cc1)NC(=O)[C@H](CCCCNC(=S)Nc1ccc2c(c1)C(=O)OC21c2ccc(O)cc2Oc2cc(O)ccc21)NC(=O)CCc1ccc(O)c(O)c1 [FITC-labeled OGP-Cat] (Dihydrocaffeoyl-K(FITC)YGFGG-OH) | > 98 | deceased by about a half | – | – | – | – | – | – | – | – | –
5700 ± 200 | 12 | – | – | – | – | – | – | NCCCC[C@H](NC(=O)CCc1ccc(O)c(O)c1)C(=O)N[C@@H](Cc1ccc(O)cc1)C(=O)NCC(=O)N[C@@H](Cc1ccccc1)C(=O)NCC(=O)NCC(=O)O [OGP-Cat] (Dihydrocaffeoyl-KYGFGG-OH) | – | – | 13 | 54 ± 4 | – | – | – | – | – | – | –
31 ± 3 | 336 | 31 ± 3 | strongest binding | 99 | strongest binding | strongest binding | strong binding | O=C(O)CNC(=O)CNC(=O)[C@H](Cc1ccccc1)NC(=O)CNC(=O)[C@H](Cc1ccc(O)cc1)NC(=O)[C@H](CCCCNC(=O)[C@H](CCCCNC(=O)CCc1ccc(O)c(O)c1)NC(=O)CCc1ccc(O)c(O)c1)NC(=O)[C@H](CCCCNC(=O)CCc1ccc(O)c(O)c1)NC(=O)CCc1ccc(O)c(O)c1 [OGP-(Cat)4] (Dihydrocaffeoyl-K(Dihydrocaffeoyl)K(X1)YGFGG-OH) | – | – | 0.32 | 160 ± 6 | weakly adsorbed; also recorded: Limited adsorption | weakly adsorbed; also recorded: Limited adsorption | 184 | weak adsorption | weakly adsorbed; also recorded: Limited adsorption | some adsorption | relatively strongly adsorbed
